Reference: patent US20090191253A2 (Creabilis Therapeutics S.P.A., priority 2005, published 2009)

Key:
BLK = target: T1, BLK (Homo sapiens, UniProt P51451); experiment: Kinase inhibition profiling BLK (ELISA); format: biochemical
T1 construct: made in house; host or cells: baculovirus expression system
Protocol: (§1) Each test compound was weighed and dissolved in DMSO to make 1 mM stock solution. The stock solution was diluted with DMSO to achieve 20 μM. The compound solution was diluted with the assay buffer to achieve 0.8 μM.

HMGB1 [1] = target: T2, HMGB1 (Homo sapiens, UniProt P09429); experiment: Protein binding experiments by circular dichroism (CD); conditions: assuming 1:1 stoichiometry binding
T2 construct: host or cells: bacteria (inferred from the mention of bacterial contaminants)
T2 sequence (P09429 whole entry, species assumed): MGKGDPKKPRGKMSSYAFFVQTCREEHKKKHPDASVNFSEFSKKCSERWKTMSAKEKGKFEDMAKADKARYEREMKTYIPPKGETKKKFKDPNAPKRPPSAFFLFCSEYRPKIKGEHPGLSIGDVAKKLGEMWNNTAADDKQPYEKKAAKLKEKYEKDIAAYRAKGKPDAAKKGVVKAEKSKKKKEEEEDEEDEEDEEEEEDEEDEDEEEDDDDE
Description: All CD spectra were collected on a Jasco J710 spectropolarimeter equipped with a NesLab RTE111 thermal controller unity, using a quartz cylindrical cuvette with a 1 cm path length (Jasco). A scan speed of 20 nm/min, a bandwidth of o 1 nm, and a resolution of 1 nm was always used.
The spectra are heavily disturbed more than likely due to DMF.

p38β = experiment: Kinase inhibition profiling p38β (IMAP); format: biochemical, human; conditions: K-252a 200 nM, ATP 10 μM
Protocol: as §1

HCK = target: T3, HCK (Homo sapiens, UniProt P08631); experiment: Kinase inhibition profiling HCK (ELISA); format: biochemical; further: ATP 20 µM
T3 construct: made in house; host or cells: baculovirus expression system
T3 sequence (P08631 73-526): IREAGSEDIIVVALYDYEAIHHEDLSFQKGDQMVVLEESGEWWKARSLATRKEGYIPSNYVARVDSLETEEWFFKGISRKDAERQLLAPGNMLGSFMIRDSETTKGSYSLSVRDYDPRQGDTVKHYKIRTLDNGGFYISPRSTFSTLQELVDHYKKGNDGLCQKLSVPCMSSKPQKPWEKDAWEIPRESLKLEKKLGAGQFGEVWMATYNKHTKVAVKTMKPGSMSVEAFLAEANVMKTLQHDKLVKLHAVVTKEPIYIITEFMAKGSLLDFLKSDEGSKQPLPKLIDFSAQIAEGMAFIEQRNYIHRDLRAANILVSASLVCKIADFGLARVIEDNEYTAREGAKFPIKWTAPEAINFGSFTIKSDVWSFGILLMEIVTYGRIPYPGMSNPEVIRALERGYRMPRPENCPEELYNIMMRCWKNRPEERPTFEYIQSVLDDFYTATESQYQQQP
Protocol: (§2) In particular, the target kinases were Tyrosine kinases and Serine/Threonine kinases.
as §1

Erk1 = target: T4, Erk1 (Homo sapiens, UniProt P27361); experiment: Kinase inhibition profiling Erk1 (IMAP); format: biochemical
T4 construct: Human Erk1 containing 379 amino acids was expressed; His (N); made in house; host or cells: E. coli
T4 sequence (P27361 whole entry): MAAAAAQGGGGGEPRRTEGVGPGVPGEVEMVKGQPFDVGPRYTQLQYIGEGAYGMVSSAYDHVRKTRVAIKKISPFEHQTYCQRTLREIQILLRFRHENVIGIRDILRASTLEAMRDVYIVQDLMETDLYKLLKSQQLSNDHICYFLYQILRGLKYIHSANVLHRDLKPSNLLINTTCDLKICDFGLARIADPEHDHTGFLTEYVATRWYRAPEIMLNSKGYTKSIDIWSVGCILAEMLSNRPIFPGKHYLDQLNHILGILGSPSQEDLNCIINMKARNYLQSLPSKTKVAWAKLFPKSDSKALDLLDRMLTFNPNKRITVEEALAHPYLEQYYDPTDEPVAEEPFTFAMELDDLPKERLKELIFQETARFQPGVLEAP
Protocol: as §1

IKKβ = target: T5, IKKβ (Homo sapiens, UniProt O14920); experiment: Kinase inhibition profiling IKKβ (IMAP); format: biochemical
T5 construct: Human IKKβ with 662 amino acids were expressed; His (N); made in house; host or cells: insect cells
T5 sequence (O14920 1-662 limits assumed): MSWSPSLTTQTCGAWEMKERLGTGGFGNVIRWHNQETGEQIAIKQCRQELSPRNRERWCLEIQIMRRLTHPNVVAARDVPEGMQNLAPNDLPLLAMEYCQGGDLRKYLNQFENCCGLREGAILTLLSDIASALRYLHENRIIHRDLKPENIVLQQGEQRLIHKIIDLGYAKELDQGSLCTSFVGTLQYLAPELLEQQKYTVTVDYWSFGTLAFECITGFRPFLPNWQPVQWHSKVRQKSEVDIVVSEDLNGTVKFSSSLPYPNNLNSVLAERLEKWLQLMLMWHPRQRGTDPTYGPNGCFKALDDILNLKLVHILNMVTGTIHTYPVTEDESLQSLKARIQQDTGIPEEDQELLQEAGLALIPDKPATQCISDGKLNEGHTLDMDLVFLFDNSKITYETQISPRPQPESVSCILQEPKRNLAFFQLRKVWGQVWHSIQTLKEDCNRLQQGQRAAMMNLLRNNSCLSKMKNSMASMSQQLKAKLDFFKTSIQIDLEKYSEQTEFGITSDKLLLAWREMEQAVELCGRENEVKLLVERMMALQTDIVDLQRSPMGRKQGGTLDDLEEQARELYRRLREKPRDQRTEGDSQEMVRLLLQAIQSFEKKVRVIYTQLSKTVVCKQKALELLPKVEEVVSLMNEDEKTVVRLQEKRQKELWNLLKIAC
Protocol: as §1

JAK1 = target: T6, JAK1 (Homo sapiens, UniProt P23458); experiment: Kinase inhibition profiling JAK1 (ELISA); format: biochemical
T6 construct: Kinase domain (KD) of human JAK1 [838-1142 amino; made in house; host or cells: baculovirus expression system
T6 sequence (P23458 850-1154): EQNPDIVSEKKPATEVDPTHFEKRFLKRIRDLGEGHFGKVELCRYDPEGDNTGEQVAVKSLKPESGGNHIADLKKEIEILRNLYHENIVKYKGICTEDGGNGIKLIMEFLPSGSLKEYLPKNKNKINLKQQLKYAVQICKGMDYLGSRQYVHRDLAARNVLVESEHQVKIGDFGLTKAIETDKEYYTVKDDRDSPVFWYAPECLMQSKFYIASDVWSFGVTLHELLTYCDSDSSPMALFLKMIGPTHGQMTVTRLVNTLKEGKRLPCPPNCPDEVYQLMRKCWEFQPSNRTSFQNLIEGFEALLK
Protocol: as §1

MET = target: T7, MET (Homo sapiens, UniProt P08581); experiment: Kinase inhibition profiling MET (ELISA); format: biochemical; further: ATP 20 µM
T7 construct: made in house; host or cells: baculovirus expression system
Protocol: as §1

KIT = target: T8, KIT (Homo sapiens, UniProt P10721); experiment: Kinase inhibition profiling KIT (ELISA); format: biochemical
T8 construct: made in house; host or cells: baculovirus expression system
Protocol: as §1

TNK1 = target: T9, TNK1 (Homo sapiens, UniProt Q13470); experiment: Kinase inhibition profiling TNK1 (ELISA); format: biochemical
T9 construct: Kinase domain (KD) of human TNK [110-394 amino; made in house; host or cells: baculovirus expression system
T9 sequence (Q13470 110-394): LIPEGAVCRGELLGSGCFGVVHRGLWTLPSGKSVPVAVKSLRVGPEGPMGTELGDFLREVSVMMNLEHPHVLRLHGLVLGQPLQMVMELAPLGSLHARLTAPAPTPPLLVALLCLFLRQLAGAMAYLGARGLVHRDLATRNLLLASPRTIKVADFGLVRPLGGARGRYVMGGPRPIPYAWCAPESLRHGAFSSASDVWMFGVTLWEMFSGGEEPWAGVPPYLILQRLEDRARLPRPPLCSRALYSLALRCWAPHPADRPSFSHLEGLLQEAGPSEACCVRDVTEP
Protocol: as §2, §1

ARG = target: T10, ARG (Homo sapiens, UniProt P42684); experiment: Kinase inhibition profiling ARG (ELISA); format: biochemical; further: ATP 5 µM
T10 construct: made in house; host or cells: baculovirus expression system
Protocol: as §1

JNK1 = target: T11, JNK1 (Homo sapiens, UniProt P45983); experiment: Kinase inhibition profiling JNK1 (ELISA); format: biochemical
T11 construct: Human JNK1 containing 364 amino acids was expressed; His (C); made in house; host or cells: E. coli
Protocol: as §1

[2] = tested on: bovine aorta smooth muscle cells (BASMC); experiment: Chemotaxis assay, fMLP-induced migration (modified Boyden chambers); format: cell-based; conditions: K-252a 3, 10, 30, 100 nM; fMLP 0.1 μM; overnight migration
Protocol: Chemotaxis assays were performed using a well known and validated protocol (1). Modified Boyden chambers were used with filters having 5-8 μm pore size and treated with collagen I (100 μg/ml in 0.5 M acetic acid) and fibronectin (10 μg/ml, Roche). BASMC (bovine aorta smooth muscle cells) were cultured in serum-free DMEM and a sample of 20,000-40,000 cells was added to the upper well of a Boyden chamber. […] Overnight cell migration was allowed at 37+/−0.5° C., then cells were scraped off and filters were fixed in methanol and stained in a solution of 10% crystal violet in 20% methanol. All experiments were performed at least twice in triplicate. […] Random cell migration, i.e. migration in the absence of chemoattractant, was given the arbitrary value of 100%. Statistical analysis was performed using Student's t test for pairwise comparisons of treatment, or an ANOVA model for the evaluation of treatments with increasing concentrations of a reagent.

HMGB1 [3] = target: T2, HMGB1; experiment: Fluorescence assays of K-252a/HMGB1 interaction; format: binding
HER4 = target: T12, HER4 (Homo sapiens, UniProt Q15303); experiment: Kinase inhibition profiling HER4 (ELISA); format: biochemical
T12 construct: Cytoplasmic domain of human HER4 [676-1308 amino; made in house; host or cells: baculovirus expression system
T12 sequence (Q15303 676-1308): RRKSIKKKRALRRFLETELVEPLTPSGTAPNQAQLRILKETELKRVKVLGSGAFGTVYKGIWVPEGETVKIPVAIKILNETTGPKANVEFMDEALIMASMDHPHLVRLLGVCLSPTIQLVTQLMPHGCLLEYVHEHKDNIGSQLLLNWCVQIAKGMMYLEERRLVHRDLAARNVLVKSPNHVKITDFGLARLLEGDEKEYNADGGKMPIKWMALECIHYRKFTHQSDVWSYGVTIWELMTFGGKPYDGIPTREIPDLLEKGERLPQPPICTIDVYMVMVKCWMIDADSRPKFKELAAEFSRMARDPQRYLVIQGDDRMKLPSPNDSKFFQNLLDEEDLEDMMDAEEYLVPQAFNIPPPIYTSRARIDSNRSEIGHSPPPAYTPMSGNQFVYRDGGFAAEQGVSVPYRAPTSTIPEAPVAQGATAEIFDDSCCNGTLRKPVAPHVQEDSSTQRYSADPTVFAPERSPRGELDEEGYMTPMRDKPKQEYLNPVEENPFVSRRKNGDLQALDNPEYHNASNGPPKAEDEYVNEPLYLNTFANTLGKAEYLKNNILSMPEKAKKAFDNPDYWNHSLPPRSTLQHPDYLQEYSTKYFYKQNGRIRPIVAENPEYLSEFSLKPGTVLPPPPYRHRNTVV
Protocol: as §1

PKCε = target: T13, PKCε (Homo sapiens, UniProt Q02156); experiment: Kinase inhibition profiling PKCε (IMAP); format: biochemical
T13 construct: made in house; host or cells: baculovirus expression system
Protocol: as §1

EGFR = target: T14, EGFR (Homo sapiens, UniProt P00533); experiment: Kinase inhibition profiling EGFR (ELISA); format: biochemical; further: ATP 5 µM
T14 construct: Cytoplasmic domain of human EGFR [669-1210 amino; made in house; host or cells: baculovirus expression system
T14 sequence (P00533 669-1210): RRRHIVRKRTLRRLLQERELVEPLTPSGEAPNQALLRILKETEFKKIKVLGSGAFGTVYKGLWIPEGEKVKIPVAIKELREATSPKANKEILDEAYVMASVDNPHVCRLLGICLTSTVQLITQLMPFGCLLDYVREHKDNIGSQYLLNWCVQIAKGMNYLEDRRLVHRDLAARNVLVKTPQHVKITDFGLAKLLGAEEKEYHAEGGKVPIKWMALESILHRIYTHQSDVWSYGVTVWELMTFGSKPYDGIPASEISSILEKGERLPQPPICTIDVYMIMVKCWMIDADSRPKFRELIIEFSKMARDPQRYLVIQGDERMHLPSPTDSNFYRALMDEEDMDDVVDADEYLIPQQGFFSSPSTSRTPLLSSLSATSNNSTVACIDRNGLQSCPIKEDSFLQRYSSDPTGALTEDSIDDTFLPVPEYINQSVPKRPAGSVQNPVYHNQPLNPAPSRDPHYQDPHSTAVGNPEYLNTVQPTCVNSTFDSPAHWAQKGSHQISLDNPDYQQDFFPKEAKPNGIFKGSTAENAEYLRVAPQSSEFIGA
Protocol: as §1

CDK2/cyclinA = target: T15, CDK2/cyclinA (Homo sapiens, UniProt P24941); experiment: Kinase inhibition profiling CDK2/cyclinA (IMAP); format: biochemical
T15 construct: His (N); made in house; host or cells: baculovirus expression system
Protocol: as §1

p38α = target: T16, p38α (Homo sapiens, UniProt Q16539); experiment: Kinase inhibition profiling p38α (IMAP); format: biochemical
T16 construct: GST (N); made in house; host or cells: E. coli
T16 sequence (Q16539 9-352): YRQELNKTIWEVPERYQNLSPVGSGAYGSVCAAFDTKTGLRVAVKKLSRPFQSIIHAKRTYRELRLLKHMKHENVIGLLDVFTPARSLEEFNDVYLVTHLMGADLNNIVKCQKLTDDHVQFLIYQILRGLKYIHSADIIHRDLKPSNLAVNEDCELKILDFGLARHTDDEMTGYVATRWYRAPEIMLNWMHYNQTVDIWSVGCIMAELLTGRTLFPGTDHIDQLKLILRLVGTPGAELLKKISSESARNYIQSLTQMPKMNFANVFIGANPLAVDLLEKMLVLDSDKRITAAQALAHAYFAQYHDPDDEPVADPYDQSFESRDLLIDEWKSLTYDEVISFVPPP
Protocol: as §1

RET = target: T17, RET (Homo sapiens, UniProt P07949); experiment: Kinase inhibition profiling RET (ELISA); format: biochemical; further: ATP 5 µM
T17 construct: Cytoplasmic domain of human RET [658-1114 amino acids; made in house; host or cells: baculovirus expression system
T17 sequence (P07949 658-1114): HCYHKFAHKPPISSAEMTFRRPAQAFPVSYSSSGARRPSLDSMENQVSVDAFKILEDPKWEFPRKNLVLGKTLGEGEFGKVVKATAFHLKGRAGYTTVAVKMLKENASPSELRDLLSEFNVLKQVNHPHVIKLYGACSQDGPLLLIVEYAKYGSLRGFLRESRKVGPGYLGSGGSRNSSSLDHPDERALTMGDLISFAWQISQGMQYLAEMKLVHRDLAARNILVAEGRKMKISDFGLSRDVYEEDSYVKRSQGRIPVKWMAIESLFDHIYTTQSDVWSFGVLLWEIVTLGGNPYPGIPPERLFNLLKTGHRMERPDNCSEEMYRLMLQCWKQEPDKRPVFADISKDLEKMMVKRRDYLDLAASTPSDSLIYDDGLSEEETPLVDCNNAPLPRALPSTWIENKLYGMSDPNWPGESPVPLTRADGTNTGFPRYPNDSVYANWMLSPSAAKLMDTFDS
Protocol: as §1

PKCγ = target: T18, PKCγ (Homo sapiens, UniProt P05129); experiment: Kinase inhibition profiling PKCγ (IMAP); format: biochemical
T18 construct: made in house; host or cells: baculovirus expression system
Protocol: as §1

KDR = target: T19, KDR (Homo sapiens, UniProt P35968); experiment: Kinase inhibition profiling KDR (ELISA); format: biochemical
T19 construct: Cytoplasmic domain of human KDR [790-1356 amino; made in house; host or cells: baculovirus expression system
Protocol: as §2, §1

CSK = target: T20, CSK (Homo sapiens, UniProt P41240); experiment: Kinase inhibition profiling CSK (ELISA); format: biochemical
T20 construct: His (N, cleaved yes); made in house; host or cells: baculovirus expression system
Protocol: as §1

EphA2 = target: T21, EphA2 (Homo sapiens, UniProt P29317); experiment: Kinase inhibition profiling EphA2 (ELISA); format: biochemical
T21 construct: made in house; host or cells: baculovirus expression system
Protocol: as §1

MAP2K7 = target: T22, MAP2K7 (Homo sapiens, UniProt O14733, S271E/S277E/T275E); experiment: Kinase inhibition profiling MAP2K7 (AlphaScreen, cascade); format: biochemical
T22 construct: T275E, S277E] derived from wild type [419 amino acids; GST (N); made in house; host or cells: E. coli
Description: AlphaScreen Assay [drawing 4]

ABL = target: T23, ABL (Homo sapiens, UniProt P00519); experiment: Kinase inhibition profiling ABL (ELISA); format: biochemical
T23 construct: made in house; host or cells: baculovirus expression system
Protocol: as §1

Question: `COC(=O)[C@]1(O)CC2O[C@@]1(C)n1c3ccccc3c3c4c(c5c6ccccc6n2c5c31)C(=O)NC4` [K-252a] was tested. Which inhibition at 0.2 µM (BLK) did it give?
Answer: Its inhibition at 0.2 µM is 83.5%.

Question: What about the Kd (HMGB1 [1]) of the same compound?
Answer: Its Kd is roughly 2 µM.

Question: And the “% Inhibition” value (p38β)?
Answer: Its value is −0.2%.

Question: And the inhibition at 0.2 µM (HCK)?
Answer: The inhibition at 0.2 µM was 68.2%.

Question: What about the inhibition at 0.2 µM (Erk1) of the same compound?
Answer: The inhibition at 0.2 µM was 32%.

Question: And the inhibition at 0.2 µM (IKKβ)?
Answer: The inhibition at 0.2 µM was 2.7%.

Question: And the inhibition at 0.2 µM (JAK1)?
Answer: Its inhibition at 0.2 µM is 83.1%.

Question: What about the inhibition at 0.2 µM (MET) of the same compound?
Answer: The inhibition at 0.2 µM was 83.2%.

Question: And the inhibition at 0.2 µM (KIT)?
Answer: Its inhibition at 0.2 µM is 87.3%.

Question: And the inhibition at 0.2 µM (TNK1)?
Answer: Its inhibition at 0.2 µM is 94.8%.

Question: What about the inhibition at 0.2 µM (ARG) of the same compound?
Answer: Its inhibition at 0.2 µM is 0.1%.

Question: And the inhibition at 0.2 µM (JNK1)?
Answer: The inhibition at 0.2 µM was 94.3%.

Question: And the “cell migration induced by fMLP” value [2]?
Answer: The value was “does not interfere with cell migration induced by fMLP, whatever the concentration tested”.

Question: And the “direct interaction between K-252a and HMGB1” value (HMGB1 [3])?
Answer: The value was “absence of a direct interaction”.

Question: What about the inhibition at 0.2 µM (HER4) of the same compound?
Answer: The inhibition at 0.2 µM was 39.4%.

Question: And the inhibition at 0.2 µM (PKCε)?
Answer: The inhibition at 0.2 µM was 60.9%.

Question: What about the inhibition at 0.2 µM (EGFR) of the same compound?
Answer: The inhibition at 0.2 µM was 16.4%.

Question: And the inhibition at 0.2 µM (CDK2/cyclinA)?
Answer: Its inhibition at 0.2 µM is 75.5%.

Question: What about the inhibition at 0.2 µM (p38α) of the same compound?
Answer: The inhibition at 0.2 µM was -1.5%.

Question: And the inhibition at 0.2 µM (RET)?
Answer: The inhibition at 0.2 µM was 94.2%.

Question: And the inhibition at 0.2 µM (PKCγ)?
Answer: Its inhibition at 0.2 µM is 53.3%.

Question: And the inhibition at 0.2 µM (KDR)?
Answer: Its inhibition at 0.2 µM is 62.9%.

Question: What about the inhibition at 0.2 µM (CSK) of the same compound?
Answer: Its inhibition at 0.2 µM is 43%.

Question: And the inhibition at 0.2 µM (EphA2)?
Answer: The inhibition at 0.2 µM was 8.9%.

Question: And the inhibition at 0.2 µM (MAP2K7)?
Answer: The inhibition at 0.2 µM was 68.2%.

Question: And the inhibition at 0.2 µM (ABL)?
Answer: The inhibition at 0.2 µM was -14.2%.
